{"source": "patent US7173061B2", "about": "“Compounds for imaging alzheimer's disease” (GE Healthcare Limited, priority 2001, dated 2007)", "target": "T1, amyloid 1-40 fibrils (fibrillar BAP 1-40) (Homo sapiens, UniProt P05067)", "T1 construct": "used to immobilise fibrillar Beta-Amyloid Protein (BAP 1-40); purchased Biosource 03-138 (BAP 1-40); 03-243 (biotinylated BAP 1-40)", "T1 sequence (P05067 672-711)": "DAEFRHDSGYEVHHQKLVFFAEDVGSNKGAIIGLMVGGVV", "assay": "Determination of amyloid binding (scintillation proximity assay beads coated with fibrillar BAP 1-40)", "details": "SPA-BAP beads, 180 minutes at room temperature, equimolar amounts, SPA-NSB counts subtracted; 125I-BAP binding taken as 100%", "procedure": "The binding of Compounds was determined compared to the ability of ^125I-beta amyloid protein 1-40 (^125I-BAP 1-40, Amersham Biosciences IM294)) to bind to amyloid 1-40 fibrils. Amyloid binding was essentially performed as follows.\nThree fresh buffer stocks were prepared for experiments: Buffer 1, 50 mM HEPES/0.1% Bovine Serum Albumin (BSA) pH 7.5; Buffer 2, 50 mM HEPES/0.1% BSA/400 μM ZnCl2 pH 7.5; Buffer 3, 50 mM HEPES/0.1% BSA/100 μM ZnCl2 pH 7.5.\nStreptavidin coated scintillation proximity assay beads (SA-SPA beads, Amersham Biosciences) were used to immobilise fibrillar Beta-Amyloid Protein (BAP 1-40). Amyloid coated beads (SPA-BAP) were prepared by incubating 250 μl SA-SPA beads (100 mg/ml) with 250 μl Buffer 2, 425 μl Buffer 1, 50 μl biotinylated BAP 1-40 (0.5 mg/ml, Biosource 03–243), 25 μl BAP 1-40 (10 mg/ml, Biosource 03–138). Non-specific binding SPA beads (SPA-NSB) were prepared to assess the binding of compounds to SPA beads with no associated BAP 1-40 fibrils in the following incubation: 250 μl SA-SPA beads (100 mg/ml) with 250 μl Buffer 2, 500 μl Buffer 1.\nSPA-BAP and SPA-NSB incubations were left for 24 hours at room temperature and then spun 1.5 ml tubes (eppendorf, Merk, 306/0421/12) for 2 minutes at 1000×g. The supernatants were removed and the beads were washed twice by resuspending them in 1 ml Buffer 3 followed by centrifugation for 2 minutes at 1000×g. Finally, washed SPA-BAP and SPA-NSB beads were resuspended in 1 ml Buffer 3.\nAmyloid binding of ^125I-BAP 1-40 and test compounds was performed in triplicate in 0.5 ml tubes (eppendorf, Merk, 306/0421/02) by adding 50 μl SPA-BAP beads to 25 μl Buffer 2 and 25 μl labelled compound (^125I-BAP 1-40 or test compound). Tubes were then incubated for 180 minutes at room temperature with shaking, followed by centrifugation for 2 minutes at 1000×g. The supematants were removed and SPA-BAP pellet washed twice with 300 μl Buffer 3 containing 1% TWEEN-20 (Sigma, P7949). Non-specific binding for labelled compounds to the SPA beads was determined using incubations as described above but by substituting SPA-BAP beads with SPA-NSB beads. Radioactivity associated with the washed SPA bead pellets was then determined.\nThe affinity of labelled compounds for fibrillar BAP 1-40 was estimated by subtracting SPA-NSB associated counts from SPA-BAP associated counts. The binding of labelled compounds was then compared to ^125I-BAP binding, which was taken as being 100%.\nIn these experiments, ^125I-BAP 1-40 or test compounds were added in equimolar amounts.", "note": "No end group written: not given here."}
{"compound": "CCN(CC)CCOc1ccc(C(=O)c2c(-c3ccc(OCC(=O)NCCN(CCNC(C)(C)/C(C)=N\\O)CCNC(C)(C)/C(C)=N\\O)cc3)oc3ccc(Cl)cc23)cc1", "note": "[Example 1(vii) Pn216 conjugated]", "values": [{"measurement": "Amyloid binding (% of 125I-BAP 1-40)", "result": 23, "unit": "%"}]}
{"compound": "CCN(CC)CCCOc1ccc(C(=O)c2c(-c3ccc(OCC(=O)NCCN(CCNC(C)(C)/C(C)=N/O)CCNC(C)(C)/C(C)=N/O)cc3)oc3ccc(Cl)cc23)cc1", "note": "[Example 2(vii) Pn216 conjugated]", "values": [{"measurement": "Amyloid binding (% of 125I-BAP 1-40)", "result": 15, "unit": "%"}]}
{"compound": "C/C(=N\\O)C(C)(C)NCCN(CCNC(=O)COc1ccc(-c2cc3cc(Cl)ccc3o2)cc1)CCNC(C)(C)/C(C)=N/O", "note": "[Example 8(iii) Pn216 conjugated]", "values": [{"measurement": "Amyloid binding (% of 125I-BAP 1-40)", "result": 40, "unit": "%"}]}
{"compound": "^125I-BAP 1-40: 125I-beta amyloid protein 1-40, Amersham Biosciences IM294; reference whose binding to amyloid fibrils is taken as 100% [reference compound]", "values": [{"measurement": "Amyloid binding (% of 125I-BAP 1-40)", "result": 100, "unit": "%"}]}
{"compound": "^125I-KKLVFFA (BAP 15-21): 125I-labelled BAP 15–21 sequence (Amersham Biosciences), responsible for the binding of BAP to itself (also: 125I label) [reference compound]", "values": [{"measurement": "Amyloid binding (% of 125I-BAP 1-40)", "result": 21, "unit": "%"}]}
